Laboratory results as given in US10934310B2, “Inhibitors of Bruton's tyrosine kinase and method of their use” (JANSSEN PHARMACEUTICA NV, priority 2015, dated 2021).

These molecules were tested against unphosphorylated-BTK kinase domain (UP-BTK), GST-tagged human BTK (389-659aa) (Homo sapiens (Human), UniProt Q06187) (assay: BTK Kinase Lanthascreen Binding Assay). Settings: Lanthascreen binding, 60 minutes incubation; pIC50 = negative log of the IC50 in molar.
Description: BTK Kinase Lanthascreen Binding Assay:
A BTK kinase lanthascreen binding assay monitors compound binding to unphosphorylated-BTK kinase domain (UP-BTK), by competing with a fluorescent labeled tracer. […] Data were analyzed using Xlfit™ version 5.3 from ID Business Solutions (Guildford), Microsoft Excel add-in. pIC50 refers to the negative log of the IC50 in molar.

Sequence of unphosphorylated-BTK kinase domain (UP-BTK), GST-tagged human BTK (389-659aa) (Q06187 389-659): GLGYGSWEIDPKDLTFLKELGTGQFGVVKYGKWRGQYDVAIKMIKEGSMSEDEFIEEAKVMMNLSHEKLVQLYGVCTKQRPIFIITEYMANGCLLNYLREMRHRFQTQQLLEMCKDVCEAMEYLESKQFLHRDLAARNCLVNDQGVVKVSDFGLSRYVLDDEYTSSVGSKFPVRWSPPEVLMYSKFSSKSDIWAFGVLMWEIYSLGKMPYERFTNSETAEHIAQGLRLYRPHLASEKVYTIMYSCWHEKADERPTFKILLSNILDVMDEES

BTK_I_binding pIC50	Compound
6.72	CC(=O)N[C@@H]1CCCC[C@@H]1NC(=O)c1sc2nccc3c2c1NC(=O)N3c1ccc(Oc2ccccc2)cc1C (single isomer, unassigned) [Example 446, N-((1S,2R)-2-Acetamidocyclohexyl)-5-(*S)-(2-methyl-4-phenoxyphenyl)-4-oxo-4,5-dihydro-3H-1-thia-3,5,8-triazaacenaphthylene-2-carboxamide]
7.23	C=CC(=O)N[C@H]1CCC[C@H]1NC(=O)c1sc2nccc3c2c1NC(=O)N3c1cc(-c2ccccc2)cnn1 [Example 320, N-((1R,2S)-2-Acrylamidocyclopentyl)-4-oxo-5-(5-phenylpyridazin-3-yl)-4,5-dihydro-3H-1-thia-3,5,8-triazaacenaphthylene-2-carboxamide]
6.93	C=CC(=O)N[C@H]1CCC[C@H]1NC(=O)c1sc2nccc3c2c1NC(=O)N3c1ccc(Oc2ncccn2)cn1 [Example 484, N-((1R,2S)-2-Acrylamidocyclopentyl)-4-oxo-5-(5-(pyrimidin-2-yloxy)pyridin-2-yl)-4,5-dihydro-3H-1-thia-3,5,8-triazaacenaphthylene-2-carboxamide]
6.73	CC(=O)N[C@@H]1CCCC[C@H]1NC(=O)c1sc2nccc3c2c1NC(=O)N3c1ccc(Oc2ccccc2)cc1C (single isomer, unassigned) [Example 445, N-((1R,2R)-2-Acetamidocyclohexyl)-5-(*S)-(2-methyl-4-phenoxyphenyl)-4-oxo-4,5-dihydro-3H-1-thia-3,5,8-triazaacenaphthylene-2-carboxamide]
8.04	C=CC(=O)N[C@H]1CC[C@H](NC(=O)c2sc3nccc4c3c2NC(=O)N4c2cnc(Oc3ccccc3)cc2C)C1 (single isomer, unassigned) [Example 306, N-((1*S,3*S)-3-Acrylamidocyclopentyl)-5-(*S)-(4-methyl-6-phenoxypyridin-3-yl)-4-oxo-4,5-dihydro-3H-1-thia-3,5,8-triazaacenaphthylene-2-carboxamide]
8.04	CCC(=O)N[C@@H]1CC[C@H](NC(=O)c2sc3nccc4c3c2NC(=O)N4c2cnc(Oc3ccccc3)cc2C)C1 (single isomer, unassigned) [Example 390, 5-(*S)-(4-Methyl-6-phenoxypyridin-3-yl)-4-oxo-N-((1S,3R)-3-propionamidocyclopentyl)-4,5-dihydro-3H-1-thia-3,5,8-triazaacenaphthylene-2-carboxamide]
8.05	C=CC(=O)N[C@H]1CC[C@@H](NC(=O)c2sc3nccc4c3c2NC(=O)N4c2cnc(Oc3ccccc3)cc2C)C1 (single isomer, unassigned) [Example 359, N-((1R,3S)-3-Acrylamidocyclopentyl)-5-(*S)-(4-methyl-6-phenoxypyridin-3-yl)-4-oxo-4,5-dihydro-3H-1-thia-3,5,8-triazaacenaphthylene-2-carboxamide]
6.42	C=CC(=O)N[C@@H]1CCC[C@H]1NC(=O)c1sc2nccc3c2c1NC(=O)N3c1ccnc(C(C)C)c1 [Example 337, N-((1R,2R)-2-Acrylamidocyclopentyl)-5-(2-isopropylpyridin-4-yl)-4-oxo-4,5-dihydro-3H-1-thia-3,5,8-triazaacenaphthylene-2-carboxamide]
7.33	C=CC(=O)N[C@H]1CCC[C@H]1NC(=O)c1sc2nccc3c2c1NC(=O)N3c1ccc(Oc2ccc(C)nc2)cn1 [Example 481, N-((1R,2S)-2-Acrylamidocyclopentyl)-5-(5-((6-methylpyridin-3-yl)oxy)pyridin-2-yl)-4-oxo-4,5-dihydro-3H-1-thia-3,5,8-triazaacenaphthylene-2-carboxamide]
7.88	C=CC(=O)N[C@H]1CC[C@@H](NC(=O)c2sc3nccc4c3c2NC(=O)N4c2cnc(OC(C)C)cc2C)C1 (single isomer, unassigned) [Example 427, N-((1R,3S)-3-Acrylamidocyclopentyl)-5-(*S)-(6-isopropoxy-4-methylpyridin-3-yl)-4-oxo-4,5-dihydro-3H-1-thia-3,5,8-triazaacenaphthylene-2-carboxamide]
7.13	C=CC(=O)N[C@@H]1CCC[C@@H]1NC(=O)c1sc2nccc3c2c1NC(=O)N3c1ccc(Oc2ccccc2)cc1C [Example 459, N-((1S,2R)-2-Acrylamidocyclopentyl)-5-(2-methyl-4-phenoxyphenyl)-4-oxo-4,5-dihydro-3H-1-thia-3,5,8-triazaacenaphthylene-2-carboxamide]

Same assay, conditions: compound, 50 nM Tracer 236, 2 nM anti-GST antibody, 60 minutes; pIC50 = negative log of the IC50 in molar

BTK_I_binding pIC50	Compound
6.91	CCC(=O)N[C@H]1CCC[C@H]1NC(=O)c1sc2nccc3c2c1NC(=O)N3c1ccc(Oc2ccccc2)cc1C [Example 34, 5-(2-Methyl-4-phenoxyphenyl)-4-oxo-N-((1R,2S)-2-propionamidocyclopentyl)-4,5-dihydro-3H-1-thia-3,5,8-triazaacenaphthylene-2-carboxamide]
8.11	C=CC(=O)N[C@@H]1CCC[C@H]1NC(=O)c1sc2nccc3c2c1NC(=O)N3c1ccc(Oc2ccccc2)cc1C (single isomer, unassigned) [Example 105, N-((1R,2R)-2-Acrylamidocyclopentyl)-5-(*S)-(2-methyl-4-phenoxyphenyl)-4-oxo-4,5-dihydro-3H-1-thia-3,5,8-triazaacenaphthylene-2-carboxamide]
7.59	CC(=O)N[C@H]1CC[C@@H](NC(=O)c2sc3nccc4c3c2NC(=O)N4c2ccc(Oc3ccccc3)cc2C)CC1 (single isomer, unassigned) [Example 94, N-((1S,4S)-4-Acetamidocyclohexyl)-5-(*S)-(2-methyl-4-phenoxyphenyl)-4-oxo-4,5-dihydro-3H-1-thia-3,5,8-triazaacenaphthylene-2-carboxamide]
6.14	CN[C@H]1CCC[C@@H]1NC(=O)c1sc2nccc3c2c1NC(=O)N3c1ccc(Oc2ccccc2)cc1C [Example 46, 5-(2-Methyl-4-phenoxyphenyl)-N-((1S,2S)-2-(methylamino)cyclopentyl)-4-oxo-4,5-dihydro-3H-1-thia-3,5,8-triazaacenaphthylene-2-carboxamide]
7.26	CC(=O)N[C@H]1CC[C@H](NC(=O)c2sc3nccc4c3c2NC(=O)N4c2ccc(Oc3ccccc3)cc2C)C1 (single isomer, unassigned) [Example 241, N-((1S,3S)-3-Acetamidocyclopentyl)-5-(*S)-(2-methyl-4-phenoxyphenyl)-4-oxo-4,5-dihydro-3H-1-thia-3,5,8-triazaacenaphthylene-2-carboxamide]
7.68	Cc1cc(Oc2ccccc2)ccc1N1C(=O)Nc2c(C(=O)N[C@@H]3CCC[C@H]3NC(=O)CN(C)C)sc3nccc1c23 (single isomer, unassigned) [Example 111, N-((1R,2R)-2-(2-(Dimethylamino)acetamido)cyclopentyl)-5-(*S)-(2-methyl-4-phenoxyphenyl)-4-oxo-4,5-dihydro-3H-1-thia-3,5,8-triazaacenaphthylene-2-carboxamide]
6.40	CC(C)(C)OC(=O)N[C@@H]1CC[C@H](NC(=O)c2sc3nccc4c3c2NC(=O)N4c2ccc(Oc3ccccc3)cc2)C1 [Example 150, tert-Butyl ((1R,3S)-3-(4-oxo-5-(4-phenoxyphenyl)-4,5-dihydro-3H-1-thia-3,5,8-triazaacenaphthylene-2-carboxamido)cyclopentyl)carbamate]
8.37	C=CC(=O)N[C@H]1CCC[C@H]1NC(=O)c1sc2nccc3c2c1NC(=O)N3c1ccc(Oc2ccccc2)cn1 [Example 179, N-((1R,2S)-2-Acrylamidocyclopentyl)-4-oxo-5-(5-phenoxypyridin-2-yl)-4,5-dihydro-3H-1-thia-3,5,8-triazaacenaphthylene-2-carboxamide]
6.42	Cc1cc(Oc2ccccc2)ccc1N1C(=O)Nc2c(C(=O)N[C@@H]3CCC[C@H](N)C3)sc3nccc1c23 (single isomer, unassigned) [Example 261, N-((1R,3S)-3-Aminocyclohexyl)-5-(*S)-(2-methyl-4-phenoxyphenyl)-4-oxo-4,5-dihydro-3H-1-thia-3,5,8-triazaacenaphthylene-2-carboxamide]
7.23	O=C(N[C@@H]1CCC[C@@H](O)C1)c1sc2nccc3c2c1NC(=O)N3c1ccc(Oc2ccccc2)cc1 [Example 139, N-((1R,3R)-3-Hydroxycyclohexyl)-4-oxo-5-(4-phenoxyphenyl)-4,5-dihydro-3H-1-thia-3,5,8-triazaacenaphthylene-2-carboxamide]

Same assay, conditions: read-out: BTK_I_binding pIC50 (converted)

IC50	Compound
> 1 µM	Cc1cc(OC(C)C)ccc1N1C(=O)Nc2c(C(=O)N[C@@H]3CCC[C@H]3O)sc3nccc1c23 [Example 456, N-((1R,2R)-2-Hydroxycyclopentyl)-5-(4-isopropoxy-2-methylphenyl)-4-oxo-4,5-dihydro-3H-1-thia-3,5,8-triazaacenaphthylene-2-carboxamide]
2.24 µM	N[C@H]1CC[C@H](NC(=O)c2sc3nccc4c3c2NC(=O)N4c2ccc(Oc3ccccc3)nc2)C1 (racemic) [Example 290, racemic trans N-((1RS,3RS)-3-Aminocyclopentyl)-4-oxo-5-(6-phenoxypyridin-3-yl)-4,5-dihydro-3H-1-thia-3,5,8-triazaacenaphthylene-2-carboxamide]
> 1 µM	N[C@H]1CCC[C@H]1NC(=O)c1sc2nccc3c2c1NC(=O)N3c1cnnc(-c2ccccc2)c1 [Example 278, N-((1R,2S)-2-Aminocyclopentyl)-4-oxo-5-(6-phenylpyridazin-4-yl)-4,5-dihydro-3H-1-thia-3,5,8-triazaacenaphthylene-2-carboxamide]
> 1 µM	C=CC(=O)N[C@H]1CCCC[C@H]1NC(=O)c1sc2nccc3c2c1NC(=O)N3c1cnc(Oc2cccnn2)cc1C [Example 467, N-((1R,2S)-2-Acrylamidocyclohexyl)-5-(4-methyl-6-(pyridazin-3-yloxy)pyridin-3-yl)-4-oxo-4,5-dihydro-3H-1-thia-3,5,8-triazaacenaphthylene-2-carboxamide]
